The target in assay [1] is T1, soybeans 15-LOX (Glycine max, UniProt P08170).
T1 construct: purchased Merck, Darmstadt, Germany
T1 sequence (P08170 1-839): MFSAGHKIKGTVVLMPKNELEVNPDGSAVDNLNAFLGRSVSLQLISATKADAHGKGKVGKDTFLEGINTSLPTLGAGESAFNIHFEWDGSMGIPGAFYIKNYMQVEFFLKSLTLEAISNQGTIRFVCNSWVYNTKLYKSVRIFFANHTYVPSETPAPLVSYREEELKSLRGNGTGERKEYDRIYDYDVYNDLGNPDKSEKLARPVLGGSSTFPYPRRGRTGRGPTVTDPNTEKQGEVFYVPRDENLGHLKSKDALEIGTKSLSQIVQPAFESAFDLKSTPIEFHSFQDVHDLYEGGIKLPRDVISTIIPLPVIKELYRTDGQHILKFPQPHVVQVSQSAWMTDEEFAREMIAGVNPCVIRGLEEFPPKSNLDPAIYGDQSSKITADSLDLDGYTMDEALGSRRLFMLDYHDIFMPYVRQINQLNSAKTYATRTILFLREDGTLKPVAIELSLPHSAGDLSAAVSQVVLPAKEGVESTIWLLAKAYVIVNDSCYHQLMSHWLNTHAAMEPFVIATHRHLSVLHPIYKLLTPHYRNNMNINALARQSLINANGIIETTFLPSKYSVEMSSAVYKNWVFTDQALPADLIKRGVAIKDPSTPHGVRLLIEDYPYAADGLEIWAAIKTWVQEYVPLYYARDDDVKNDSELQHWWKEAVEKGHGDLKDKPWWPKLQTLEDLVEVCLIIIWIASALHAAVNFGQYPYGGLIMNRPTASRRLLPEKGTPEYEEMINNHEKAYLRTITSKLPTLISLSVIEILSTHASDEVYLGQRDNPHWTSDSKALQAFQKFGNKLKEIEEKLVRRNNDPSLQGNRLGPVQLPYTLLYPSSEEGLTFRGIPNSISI
Kind of assay: 15-lipoxygenase enzyme inhibitory assay (FOX). The following applies: linoleic acid substrate, FOX reagent, 560 nm; read-out: IC50 15-LOX (converted). The class given is biochemical, soybean. How it is done: The method developed by Pinto et al. was used to determine the effect of the tested samples on 15-LOX inhibitory activity, with slight modifications to the 96-well microtitre plate format. Using 20 µL of tested samples at varying concentrations (3.90 to 500 µg/mL), the soybeans 15-LOX (Merck, Darmstadt, Germany) (40 µL, 200 UI/mL) were incubated at 25 °C for 5 min. The plate was then incubated at 25 °C for 20 min in the dark; after, 40 µL of linoleic acid (final concentration, 140 μM) produced in Tris-HCl buffer (50 mM, pH 7.4) was added. A total of 100 µL of the FOX reagent—sulfuric acid (30 mM), xylenol orange (100 μM), and ferrous II) sulfate (100 μM) mixed in methanol/water (9:1)—was added to terminate the test. A SpectraMax iD3 multi-mode microplate reader (Molecular Devices, San Jose, CA, USA) was used to measure the absorbance at 560 nm following 30 min of incubation at 25 °C in the dark. Gallic acid (0.78 to 100 µg/mL) was employed as the usual inhibitor of 15-LOX, while DMSO at 5% (v/v) served as the negative control. With the exception of adding the substrate after the FOX reagent, the blanks were prepared exactly like the tested samples. Formula (2) below was used to compute the 15-LOX inhibitory activity. 15 LOX inhibitory activity (%) = 100 − [(A0 − A1) − (A2 − A1)] × 100(2) where A0 is absorbance of test samples, A1 is absorbance of blank, and A2 is absorbance of negative control (DMSO 5%).
The IC50 values were calculated for each biological experiment using the nonlinear regression curve of the % inhibitory activity versus the logarithm (log10) of the various tested concentrations using GraphPad Prism 6.0 software (GraphPad Software, Inc., San Diego, CA, USA). The data are shown as mean ⁱ SEM (standard error of the mean) values, and all biological experiments were conducted in triplicate (n = 3). The statistical analysis was conducted using GraphPad Prism 6.0 software (GraphPad Software, Inc., San Diego, CA, USA). One-way analysis of variance (ANOVA) was used to compare the data across the tested samples and/or controls, and Student–Newman–Keuls or Dunnett’s tests were then performed. A p-value of less than 0.05 indicated a significant difference in the results.

The test system of assay [2] is LPS-stimulated RAW 264.7 cells. The assay can be described thus: ROS production in LPS-stimulated RAW 264.7 cells (DCFH-DA). The class given is cell-based, murine. The following applies: 25, 50, 100 µg/mL, 2 h pre-treatment, 200 ng/mL LPS 24 h. Here is the method:
For ROS production inhibition, on a black/clear bottom 96-well plate, RAW 264.7 cells were seeded at a density of 10,000 cells per well. The cells were then pre-treated with non-toxic quantities of EMME and genistin (5) at 25, 50, and 100 µg/mL for two hours and then exposed to 200 ng/mL of LPS for twenty-four hours under standard culture conditions. Thereafter, the cells were washed twice with PBS, followed by the addition of 100 µL of fresh FBS-free medium containing 10 µM of the fluorescent probe 2′,7′-dichlorodihydrofluorescein diacetate (DCFH-DA) (Sigma-Aldrich, Darmstadt, Germany). After 30 min of additional incubation under usual culture conditions, PBS was added to the plate in place of the fluorescent probe. The fluorescence of the cells was measured using a SpectraMax iD3 multi-mode microplate reader (Molecular Devices, San Jose, CA, USA) at 485 nm (excitation) and 535 nm (emission). The percentage of cells treated with DMSO 0.5% without LPS, known as the negative control, was used to express the intracellular ROS levels. Using an excitation/emission filter (480/535 nm) on a 40× objective, images were taken with a camera (Flexacam C1, Leica Microsystems, Wetzlar, Germany) attached to a fluorescence microscope (Leica Microsytems GmbH, Wetzlar, Germany).

On the set-up of assay [3]: method as in PMID 12510840, PMID 22997529. The conditions noted are these: ONOO−, DPPH•, ABTS•+; cited from earlier work. (Loss of DPPH colour is used to gauge radical scavenging.)
For assay [4], the system named is LPS-induced NO production. Details: method as in PMID 20183278, PMID 27087823, PMID 32253713. The following applies: cited from earlier work.

The values that follow come from publication PMC11678782, “The Antioxidant and Anti-Inflammatory Activities of the Methanolic Extract, Fractions, and Isolated Compounds from Eriosema montanum Baker f. (Fabaceae)” (Molecules, 2024).

Entries after “also recorded” stand apart in the source; their conditions may differ.

A word on the IC50: it is the concentration at which inhibition is half-maximal. For the compound `CCCCCCCCCCCCCCCC` [Compound 1, n-hexadecane], the IC50 in assay [1] is more than 883 µM.
Still for that read-out and setting: next, `CCCCCCCCCCCCCCCCCCCCCCCO` [Compound 3, tricosan-1-ol]: more than 587 µM; `O=c1c2c(O)cc(O)cc2oc2oc3cc(O)ccc3c12` [Compound 4, lupinalbin A]: more than 704 µM.
`O=c1c(-c2ccc(O)cc2)coc2cc(O[C@@H]3O[C@H](CO)[C@@H](O)[C@H](O)[C@H]3O)cc(O)c12` [Compound 5, genistin]: the IC50 in assay [1] is 414 µM. The “Inhibition of LPS-induced ROS production” value is “markedly and dose-dependently reduced” in assay [2]; “able to inhibit” in assay [2] (listed as Genistin (5)); “moderate activity; also recorded: moderately effective” in assay [2] (listed as genistin (5)). Further, the “Antioxidant properties via scavenging activity” value in assay [3] was “moderate antioxidant properties”. Moreover, the “Effect on LPS-induced NO production” value in assay [4] is listed as “decreases LPS-induced NO production”.
As to `CO[C@H]1[C@H](O)[C@@H](O)[C@@H](O)[C@H](O)[C@@H]1O` [Compound 6, D-pinitol], the IC50 in assay [1] was more than 1030 µM.
Same read-out and setting: the figure for `CC[C@H](/C=C/[C@@H](C)[C@H]1CC[C@H]2[C@@H]3CC=C4C[C@@H](O[C@@H]5O[C@H](CO)[C@@H](O)[C@H](O)[C@H]5O)CC[C@]4(C)[C@H]3CC[C@]12C)C(C)C` [Compound 7, stigmasterol glucoside] is more than 348 µM.
